Like-named read-outs stand apart in the source and are kept apart here.
Target: human PAD4 (hPAD4) (Homo sapiens, UniProt Q9UM07)
Test: RFMS Human PAD4 Functional Assay
Format: biochemical
Conditions: 5 nM hPAD4, 250 μM BAEE
Method: RFMS Human PAD4 Functional Assay:
Compounds were solubilized in 100% DMSO to achieve a 10 mM compound concentration. Compound stock solutions were stored at RT. A series of dilutions were prepared in DMSO and mixed 8 times with 20 μL mixing volume. Final top concentration of compound in the assay is 50 μM.
0.13 μL of compound solution was added to 13 μL of 10 nM PAD4 in assay buffer. After 30 min 13 μl of 500 μM of BAEE was added in 25 mM hepes, pH 7.5, 5 mM NaCl, 1 mM DTT, 0.2 mg/ml BSA, 0.01% CHAPS, 50 μM Calcium, 5 μM TPEN was added and the reaction incubated for 90 min at 37° C. The enzymatic reaction was quenched by addition of 15 μl of 6.1N TCA, 100% Final Concentration is 20%, 35 μl of 8.5 mM phenyl glyoxal (final concentration 4 mM) is then added and the reaction is incubated for 30 min at 37° C.
After 30 minutes the plates are spun down to remove all precipitate. The enzyme reaction was quenched with an equal volume of methanol containing internal standard (modified citrulline). Samples were loaded onto the Rapid Fire RF300 system (Agilent) wherein they were first sipped for 1000 ms and then directly loaded to a C18 separations cartridge using a mixture of acetonitrile containing 0.01% formic acid for 3000 ms desalting. The flow rate of the mobile phase was 1.5 ml/min.
The dwell time for each transition was set at 200 ms, and the ESI voltage was used at 5500 with a source temperature of 400° C. Extracted ion peaks for each transition were integrated using the Rapid Fire Integrator software. Peak area of analyte was normalized with internal standard.).

[1] = hPAD4 RFMS IC50, human PAD4, rapid-fire mass spectrum (RFMS) assay
[2] = human PAD4, rapid-fire mass spectrum (RFMS) assay, read-out: hPAD4 RFMS IC50

Sequence of human PAD4 (hPAD4) (Q9UM07 whole entry): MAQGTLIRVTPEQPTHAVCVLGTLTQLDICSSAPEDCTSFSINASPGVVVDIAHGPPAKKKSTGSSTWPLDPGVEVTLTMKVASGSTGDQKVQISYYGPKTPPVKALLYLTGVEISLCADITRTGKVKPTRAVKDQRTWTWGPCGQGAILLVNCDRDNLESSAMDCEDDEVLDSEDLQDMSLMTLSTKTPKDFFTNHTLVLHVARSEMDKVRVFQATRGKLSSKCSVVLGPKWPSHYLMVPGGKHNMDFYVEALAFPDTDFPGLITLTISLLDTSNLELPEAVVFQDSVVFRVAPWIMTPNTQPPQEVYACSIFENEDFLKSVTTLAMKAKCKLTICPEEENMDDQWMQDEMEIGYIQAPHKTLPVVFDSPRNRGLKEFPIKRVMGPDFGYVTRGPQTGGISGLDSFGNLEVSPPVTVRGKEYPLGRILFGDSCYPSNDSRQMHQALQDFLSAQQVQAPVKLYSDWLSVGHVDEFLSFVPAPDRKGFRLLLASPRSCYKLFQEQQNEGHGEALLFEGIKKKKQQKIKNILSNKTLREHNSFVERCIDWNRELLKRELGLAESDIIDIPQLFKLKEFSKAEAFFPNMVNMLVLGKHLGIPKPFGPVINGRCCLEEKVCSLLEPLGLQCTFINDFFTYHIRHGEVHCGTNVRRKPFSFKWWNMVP

Structure (SMILES)	IC50 [1]	IC50 [2]
COc1cc(C(=O)N2C[C@H]3CC[C@@H]2[C@@H]3N)cc2nc(-c3cc4cccc(C5CC(C(=O)N6CCC6)C5)c4n3CC3CC3)n(C)c12 (single isomer, unassigned; isomer 1) [Example 202]	24 nM	–
[2H]C([2H])([2H])N(C(=O)C1CC(c2cccc3cc(-c4nc5cc(C(=O)N6C[C@H]7CC[C@@H]6[C@@H]7N)cc(OC)c5n4C)n(CC4CC4)c23)C1)C([2H])([2H])[2H] (single isomer, unassigned; isomer 2) [Example 196]	53 nM	–
COc1cc(C(=O)N2C[C@H]3CC[C@@H]2[C@@H]3N)cc2nc(-c3cc4cccc(C5CC(C(=O)N6CC(F)C6)C5)c4n3CC3CC3)n(C)c12 (single isomer, unassigned; isomer 2) [Example 201]	57 nM	–
COc1cc(C(=O)N2C[C@H]3CC[C@@H]2[C@@H]3N)cc2nc(-c3cc4cccc(C5CC(C(=O)N6CCC6)C5)c4n3CC3CC3)n(C)c12 (single isomer, unassigned; isomer 2) [Example 203]	46 nM	–
COc1cc(C(=O)N2C[C@H]3CC[C@@H]2[C@@H]3N)cc2nc(-c3cc4cccc(CCCO)c4n3CC3CC3)n(C)c12 [Example 2, ((1R,4R,7R)-7-amino-2-azabicyclo[2.2.1]heptan-2-yl)(2-(1-(cyclopropylmethyl)-7-(3-hydroxypropyl)-1H-indol-2-yl)-7-methoxy-1-methyl-1H-benzo[d]imidazol-5-yl)methanone]	–	32 nM
COc1cc(C(=O)N2C[C@H]3CC[C@@H]2[C@@H]3N)cc2nc(-c3cc4cccc(C5CCOCC5)c4n3CC3CC3)n(C)c12 [Example 3, ((1R,4R,7R)-7-amino-2-azabicyclo[2.2.1]heptan-2-yl)(2-(1-(cyclopropylmethyl)-7-(tetrahydro-2H-pyran-4-yl)-1H-indol-2-yl)-7-methoxy-1-methyl-1H-benzo[d]imidazol-5-yl)methanone]	100 nM	–
COc1cc(C(=O)N2C[C@H]3CC[C@@H]2[C@@H]3N)cc2nc(-c3cc4cccc(C5CCNCC5)c4n3CC3CC3)n(C)c12 [Example 4, (1R,4R,7R)-2-{2-[1-(cyclopropylmethyl)-7-(piperidin-4-yl)-1H-indol-2-yl]-7-methoxy-1-methyl-1H-1,3-benzodiazole-5-carbonyl}-2-azabicyclo[2.2.1]heptan-7-amine]	30 nM	–
COc1cc(C(=O)N2C[C@H]3CC[C@@H]2[C@@H]3N)cc2nc(-c3cc4cccc(C5CCCC5)c4n3CC3CC3)n(C)c12 [Example 6, (1R,4R,7R)-2-{2-[7-cyclopentyl-1-(cyclopropylmethyl)-1H-indol-2-yl]-7-methoxy-1-methyl-1H-1,3-benzodiazole-5-carbonyl}-2-azabicyclo[2.2.1]heptan-7-amine]	190 nM	–
COc1cc(C(=O)N2C[C@H]3CC[C@@H]2[C@@H]3N)cc2nc(-c3cc4cccc(C5CC(N)C5)c4n3CC3CC3)n(C)c12 (stereo partly drawn) [Example 9, (1R,4R,7R)-2-{2-[7-(3-aminocyclobutyl)-1-(cyclopropylmethyl)-1H-indol-2-yl]-7-methoxy-1-methyl-1H-1,3-benzodiazole-5-carbonyl}-2-azabicyclo[2.2.1]heptan-7-amine]	40 nM	–
COc1cc(C(=O)N2C[C@H]3CC[C@@H]2[C@@H]3N)cc2nc(-c3cc4cccc(CC5CCNCC5)c4n3CC3CC3)n(C)c12 [Example 10, (1R,4R,7R)-2-{2-[1-(cyclopropylmethyl)-7-[(piperidin-4-yl)methyl]-1H-indol-2-yl]-7-methoxy-1-methyl-1H-1,3-benzodiazole-5-carbonyl}-2-azabicyclo[2.2.1]heptan-7-amine]	128 nM	–
COc1cc(C(=O)N2C[C@H]3CC[C@@H]2[C@@H]3N)cc2nc(-c3cc4cccc(C5CCCNC5)c4n3CC3CC3)n(C)c12 (stereo partly drawn) [Example 12, (1R,4R,7R)-2-{2-[1-(cyclopropylmethyl)-7-(piperidin-3-yl)-1H-indol-2-yl]-7-methoxy-1-methyl-1H-1,3-benzodiazole-5-carbonyl}-2-azabicyclo[2.2.1]heptan-7-amine]	73 nM	–
COc1cc(C(=O)N2C[C@H]3CC[C@@H]2[C@@H]3N)cc2nc(-c3cc4cccc(C5CCC(N)CC5)c4n3CC3CC3)n(C)c12 (stereo partly drawn) [Example 13, (1R,4R,7R)-2-{2-[7-(4-aminocyclohexyl)-1-(cyclopropylmethyl)-1H-indol-2-yl]-7-methoxy-1-methyl-1H-1,3-benzodiazole-5-carbonyl}-2-azabicyclo[2.2.1]heptan-7-amine]	16 nM	–
COc1cc(C(=O)N2C[C@H]3CC[C@@H]2[C@@H]3N)cc2nc(-c3cc4cccc(C[C@H]5CC[C@H](N)CC5)c4n3CC3CC3)n(C)c12 [Example 14, ((1R,4R,7R)-7-amino-2-azabicyclo[2.2.1]heptan-2-yl)(2-(7-(((trans)-4-aminocyclohexyl)methyl)-1-(cyclopropylmethyl)-1H-indol-2-yl)-7-methoxy-1-methyl-1H-benzo[d]imidazol-5-yl)methanone]	38 nM	–
COc1cc(C(=O)N2C[C@H]3CC[C@@H]2[C@@H]3N)cc2nc(-c3cc4cccc(C5CCN(C(C)=O)CC5)c4n3CC3CC3)n(C)c12 [Example 15, 1-[4-(2-{5-[(1R,4R,7R)-7-amino-2-azabicyclo[2.2.1]heptane-2-carbonyl]-7-methoxy-1-methyl-1H-1,3-benzodiazol-2-yl}-1-(cyclopropylmethyl)-1H-indol-7-yl)piperidin-1-yl]ethan-1-one]	20 nM	–
COc1cc(C(=O)N2C[C@H]3CC[C@@H]2[C@@H]3N)cc2nc(-c3cc4cccc(CCCCCN)c4n3CC3CC3)n(C)c12 [Example 16, (1R,4R,7R)-2-{2-[7-(5-aminopentyl)-1-(cyclopropylmethyl)-1H-indol-2-yl]-7-methoxy-1-methyl-1H-1,3-benzodiazole-5-carbonyl}-2-azabicyclo[2.2.1]heptan-7-amine]	39 nM	–

The next lines start with the values.

IC50 [1]	IC50 [2]	Structure (SMILES)
–	73 nM	COc1cc(C(=O)N2C[C@H]3CC[C@@H]2[C@@H]3N)cc2nc(-c3cc4cccc(-c5cn(CCO)nn5)c4n3CC3CC3)n(C)c12 (stereo in doubt) [Example 108, 2-{4-[2-(5-{7-amino-2-azabicyclo[2.2.1]heptane-2-carbonyl}-7-methoxy-1-methyl-1H-1,3-benzodiazol-2-yl)-1-(cyclopropylmethyl)-1H-indol-7-yl]-1H-1,2,3-triazol-1-yl}ethan-1-ol]
180 nM	–	COc1cc(C(=O)N2CC3CC[C@@H]2[C@@H]3N)cc2nc(-c3cc4cccc(-c5ccc6c(c5)C(C)(C)OC(=O)N6)c4n3CC3CC3)n(C)c12 (stereo in doubt) [Example 142, 6-(2-(5-((1R,4S)-7-amino-2-azabicyclo[2.2.1]heptane-2-carbonyl)-7-methoxy-1-methyl-1H-benzo[d]imidazol-2-yl)-1-(cyclopropylmethyl)-1H-indol-7-yl)-4,4-dimethyl-1,4-dihydro-2H-benzo[d][1,3]oxazin-2-one]
–	162 nM	COc1cc(C(=O)N2C[C@H]3CC[C@@H]2[C@@H]3N)cc2nc(-c3cc4cccc(Br)c4n3CC3CC3)n(C)c12 [Example 1, ((1R,4R,7R)-7-amino-2-azabicyclo[2.2.1]heptan-2-yl)(2-(7-bromo-1-(cyclopropylmethyl)-1H-indol-2-yl)-7-methoxy-1-methyl-1H-benzo[d]imidazol-5-yl)methanone]
187 nM	–	CCCc1cccc2cc(-c3nc4cc(C(=O)N5C[C@H]6CC[C@@H]5[C@@H]6N)cc(OC)c4n3C)n(CC3CC3)c12 [Example 5, (1R,4R,7R)-2-{2-[1-(cyclopropylmethyl)-7-propyl-1H-indol-2-yl]-7-methoxy-1-methyl-1H-1,3-benzodiazole-5-carbonyl}-2-azabicyclo[2.2.1]heptan-7-amine]
158 nM	–	COc1cc(C(=O)N2C[C@H]3CC[C@@H]2[C@@H]3N)cc2nc(-c3cc4cccc(C5CCC5)c4n3CC3CC3)n(C)c12 [Example 7, (1R,4R,7R)-2-{2-[7-cyclobutyl-1-(cyclopropylmethyl)-1H-indol-2-yl]-7-methoxy-1-methyl-1H-1,3-benzodiazole-5-carbonyl}-2-azabicyclo[2.2.1]heptan-7-amine]
73 nM	–	COc1cc(C(=O)N2C[C@H]3CC[C@@H]2[C@@H]3N)cc2nc(-c3cc4cccc(C5CNC5)c4n3CC3CC3)n(C)c12 [Example 8, (1R,4R,7R)-2-{2-[7-(azetidin-3-yl)-1-(cyclopropylmethyl)-1H-indol-2-yl]-7-methoxy-1-methyl-1H-1,3-benzodiazole-5-carbonyl}-2-azabicyclo[2.2.1]heptan-7-amine]
48 nM	–	COc1cc(C(=O)N2C[C@H]3CC[C@@H]2[C@@H]3N)cc2nc(-c3cc4cccc(CCCN)c4n3CC3CC3)n(C)c12 [Example 11, (1R,4R,7R)-2-{2-[7-(3-aminopropyl)-1-(cyclopropylmethyl)-1H-indol-2-yl]-7-methoxy-1-methyl-1H-1,3-benzodiazole-5-carbonyl}-2-azabicyclo[2.2.1]heptan-7-amine]

— patent US20220402950A1, “SUBSTITUTED BENZIMIDAZOLES AS PAD4 INHIBITORS” (BRISTOL-MYERS SQUIBB COMPANY, priority 2018, published 2022)
